Results published in the Kinase Knowledgebase extract (Sharma et al. 2016).

These compounds were tested against MAPK14 (human) (UniProt Q16539) (assay: Inhibition of MAPK14 Kinase Activity).
Sequence of MAPK14 (human) (Q16539 whole entry, looked up): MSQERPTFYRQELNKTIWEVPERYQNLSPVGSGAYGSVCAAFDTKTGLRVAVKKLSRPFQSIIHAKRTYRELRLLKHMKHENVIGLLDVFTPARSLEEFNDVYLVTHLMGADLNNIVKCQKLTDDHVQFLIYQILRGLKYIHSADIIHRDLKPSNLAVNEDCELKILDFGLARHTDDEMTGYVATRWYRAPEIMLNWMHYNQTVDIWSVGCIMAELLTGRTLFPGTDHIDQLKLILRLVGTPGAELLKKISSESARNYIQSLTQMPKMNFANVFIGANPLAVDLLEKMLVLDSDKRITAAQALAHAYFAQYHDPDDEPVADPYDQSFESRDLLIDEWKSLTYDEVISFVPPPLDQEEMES
`Cc1ccc(C(=O)Nc2ccon2)cc1Nc1ncnc(NC(C)C)c1C#N` showed a Ki of 0.41 nM.
`Cc1ccc(C(=O)Nc2ccon2)cc1Nc1nc(N)nc(NC(C)C)c1C#N` gave a Ki of 0.057 nM.
With `Cc1ccc(C(=O)Nc2ccon2)cc1Nc1nc(N)nc(NC2CCCC2)c1C#N` the Ki was 0.16 nM.
`CCn1nccc1NC(=O)c1ccc(C)c(Nc2ncnc(NC3CCCC3)c2C#N)c1` was tested, and the Ki was 14 nM.
For `Cc1ccc(C(=O)Nc2ccon2)cc1Nc1ncnc(NC2CCCC2)c1C#N`, the Ki was 1.6 nM.
`CONC(=O)c1ccc(C)c(Nc2ncnc(NC(C)C)c2C#N)c1` gave a Ki of 0.61 nM.
`CONC(=O)c1ccc(C)c(Nc2ncnc(N(C)CC(C)(C)C)c2C#N)c1` gave a Ki of 0.15 nM.
`CONC(=O)c1ccc(C)c(Nc2nc(N)nc(N(C)CC(C)(C)C)c2C#N)c1` showed a Ki of 0.05 nM.
In the case of `CCn1nccc1NC(=O)c1ccc(C)c(Nc2nc(N)nc(NC(C)C)c2C#N)c1`, the IC50 is reported as 1.5 nM and the Ki is reported as 1.5 nM.
`CCn1nccc1NC(=O)c1ccc(C)c(Nc2ncnc(NC(C)C)c2C#N)c1` was tested, and the Ki was 15 nM.
For `CCCNc1ncnc(Nc2cc(C(=O)NOC)ccc2C)c1C#N`, the Ki was 0.97 nM.
`CONC(=O)c1ccc(C)c(Nc2nc(N3CCCN(C)CC3)nc(N(C)CC(C)(C)C)c2C#N)c1` was tested, and the Ki was 0.057 nM.
With `CNc1ncnc(Nc2cc(C(=O)NOC)ccc2C)c1C#N` the Ki was 16 nM.
Compound `CNc1nc(Nc2cc(C(=O)NOC)ccc2C)c(C#N)c(N(C)CC(C)(C)C)n1` has a Ki of 0.047 nM.
Work on `CCn1nccc1NC(=O)c1ccc(C)c(Nc2nc(N)nc(NC3CCCC3)c2C#N)c1` yielded an IC50 of 1.9 nM and a Ki of 1.9 nM.
